A short description of data set [1]: Hematologic indices, serum EPO and organ histology in mice. In kind it is in vivo, C57BL/6J mice. Conditions: 14 days. As for the experimental part: To investigate the effect of 32-134D on erythropoiesis, C57BL/6J mice (n = 4 per group) received a daily intraperitoneal injection of vehicle or 32-134D at a dose of 40 or 80 mg/kg/day for 14 days.
Figure 8 Effect of 32-134D on red blood cell indices. Mice (n = 4 per group) were treated with vehicle (V) or 32-134D (40 mg/kg/day) for 14 days and peripheral blood was analyzed for red blood cell count (RBC), hemoglobin (Hgb), hematocrit (Hct), reticulocytes, mean corpuscular hemoglobin (MCH), mean corpuscular hemoglobin concentration (MCHC), mean corpuscular volume (MCV), and absolute reticulocyte count (A) or EPO levels in serum (B).
To analyze blood parameters, male C57BL/6J mice were treated with vehicle or 32-134D by daily intraperitoneal injection for 14 days. Blood was collected by cardiac puncture into EDTA-coated tubes for analysis of hematologic indices at the Johns Hopkins Mouse Phenotyping Core. Blood collected into noncoated tubes was allowed to clot for 2 hours at room temperature, centrifuged at 2000g for 20 minutes, and serum samples were subjected to EPO ELISA according to the manufacturer’s instructions (Supplemental Table 6). Organs including heart, liver, kidney, small intestine, colon, lungs, and brain were harvested, fixed in formalin for 24 hours, and embedded in paraffin for histopathological investigation. Hematoxylin and eosin staining was performed by the Johns Hopkins Reference Histology Services.
Supplemental Figure 9. Normal organ histology in mice treated with 32-134D. Mice were administered vehicle or 32-134D (40 or 80 mg/kg) by daily intraperitoneal injection for 14 days and tissue sections from the indicated organs were stained with hematoxylin and eosin. Scale bar = 20 µm.
(§1) (1 picture or pasted object on this page, not shown here)

The next data set has as its system Hepa1-6 mouse HCC cells. Briefly: RT-qPCR of hypoxia-induced gene expression in Hepa1-6 cells. The class given is cell-based. The settings on record: Hepa1-6, 1% O2, 24 hours. As for the experimental part:
Next, we analyzed Hepa1-6, which is a mouse HCC cell line. […] CXCL1, IL-6, and IL-10 were not induced by hypoxia, whereas hypoxia-induced IL-22 expression was inhibited by 32-134D (P < 0.05; Figure 3C).
Figure 3 Effect of 32-134D treatment on hypoxia-induced gene expression in Hepa1-6 cells. (A–C) Cells were exposed to 20% O2 and vehicle (white bars), 1% O2 and vehicle (blue bars), or 1% O2 and 32-134D (red bars) for 24 hours and mRNAs were quantified by RT-qPCR and normalized to white (mean ± SEM, n = 4). *P < 0.05 versus white; ^#P < 0.05 versus blue (ANOVA with Bonferroni’s post hoc test).
RNA was extracted using TRIzol Reagent. Quantitative real-time PCR was conducted using SYBR Green PCR Master Mix and reactions were run using a Bio-Rad thermal cycler. Primer sequences and reagent sources are listed in Supplemental Table 5. The mRNA expression of target genes was normalized to the expression of 18S rRNA and the fold change (FC) was calculated based on the threshold cycle (Ct) as FC = 2^–Δ(ΔCt), where ΔCt = Cttarget gene – Ct18S rRNA and Δ(ΔCt) = ΔCttreatment – ΔCtcontrol. For RNA-seq, total RNA was isolated and treated with DNase (Qiagen). The JHU GRCF High-Throughput Sequencing facility prepared libraries and performed RNA-seq. The RNA-seq data were processed and interpreted using Genialis Expressions software (https://www.genialis.com/expressions/). An automated data analysis pipeline run in the Genialis platform consisted of the following: Sequence quality checks were performed on raw and trimmed reads with FastQC. Bbduk was used to trim adapters and filter out poor quality reads. Trimmed reads were then mapped to the STAR index (ENSEMBL 100) reference genome using the STAR ([93]) aligner. Gene expression levels were quantified with featureCounts ([94]), and differential gene expression analyses were performed with DESeq2 ([95]). […] Differential expression was determined with an FDR of less than 0.05 and mRNA FC of greater than 1.5 to identify hypoxia-induced genes and genes inhibited by 32-134D. Data used in this study have been deposited in the NCBI Gene Expression Omnibus database (GEO GSE195997).
Supplemental Figure 7. Effect of 32-134D on gene expression in Hepa1-6 cells. Cells were exposed to 20% O2 and vehicle (white bar) or 1% O2 and vehicle (blue bar), 2.5-10 […]
for 24 hours and mRNAs were quantified by RT-qPCR and normalized to white (mean + SEM, n = 4). *p < 0.05 vs white; #p < 0.05 vs blue (ANOVA with Bonferroni post-test).
as §1
In general terms: Real-time PCR tracks product formation cycle by cycle.

The next data set concerns Hepa1-6 HCC tumors. Nature of the data set: Hepa1-6 tumor growth and eradication in syngeneic C57L mice. The class given is in vivo. As for the experimental part: To test whether 32-134D inhibits HCC growth in an immunocompetent mouse model, we injected Hepa1-6 HCC cells into the flank of syngeneic C57L mice ([54]). When tumors became palpable (treatment day 1), mice received intraperitoneal injections of 32-134D (40 mg/kg/day) versus vehicle control, or anti-PD1 antibody versus IgG2a isotype control (200 μg on days 1, 4, 7, 10, 13, and 16), or both 32-134D and anti-PD1. Tumors grew very rapidly in all mice treated with vehicle or IgG2a, necessitating euthanasia on or before day 24 (Figure 4, A and C). Tumors regressed in 5 out of 12 mice treated with anti-PD1, but 2 tumors recurred after the last antibody treatment (on day 16) for a tumor eradication rate of only 25% (Figure 4D). […] Thus, addition of 32-134D increased the percentage of mice with a complete response to anti-PD1 immune checkpoint blockade from 25% to 67% (Figure 4F).
Figure 4 Effect of anti-PD1 and 32-134D on Hepa1-6 tumor growth in syngeneic mice. […]
Female nude mice (NCI Athymic NCr-nu/nu) and male C57L mice were purchased from Charles River and The Jackson Laboratory, respectively. Hep3B (8 × 10^6) and Hepa1-6 (1 × 10^7) cells were resuspended in PBS and Matrigel (1:1, vol/vol) and implanted subcutaneously in 6- to 8-week-old mice, and tumor volume was calculated as V = abc × 0.52. […]

Each structure is given as a SMILES string.

Regarding `Brc1ccc2c(-c3csc(-c4c[nH]c5c(Br)cccc45)n3)c[nH]c2c1` [Compound 32-134D], in data set [1] (40 or 80 mg/kg ip), the “histology of brain, colon, heart, kidney, liver, lungs, and small intestine” value is on record as “no changes”. The “red blood cell count, hemoglobin, hematocrit, reticulocyte count, MCV, MCH, MCHC versus vehicle” value in data set [1] (40 or 80 mg/kg/day ip) is on record as “not significantly different”. The “serum EPO levels versus vehicle” value in data set [1] (ELISA) is reported as “no significant difference”. For the same compound, in the data set with Hepa1-6 mouse HCC cells, the “RPL13A mRNA expression” value is “no effect” and the “hypoxic induction of PDL1 mRNA” value was “induced in vehicle-treated but not in 32-134D–treated cells”. Besides, the “hypoxia-induced ANGPTL4, EPO, PGF, and VEGFA mRNA expression” value in the data set on Hepa1-6 mouse HCC cells (2.5-10 µM) is “significant dose-dependent inhibition”. Besides, in the data set with Hepa1-6 mouse HCC cells (P < 0.05), the “hypoxia-induced IL-22 expression” value is “inhibited”; the “hypoxia-induced expression of SLC2A1, LDHA, ENTPD1, and CA9 mRNA” value is “inhibited”; the “hypoxic induction of B7H4 and TIM3 mRNA” value was “hypoxia-induced expression in vehicle-treated but not in 32-134D–treated cells”. Further, the tumor growth entry in the data set with Hepa1-6 HCC tumors (40 mg/kg/day ip) is given as “inhibition of tumor growth in all mice”. The “mice with tumor eradication” value in the data set with Hepa1-6 HCC tumors (12 mice per group) is recorded as 4 of 12.

For the origin of these results see publication PMC9057582, “HIF inhibitor 32-134D eradicates murine hepatocellular carcinoma in combination with anti-PD1 therapy” (The Journal of Clinical Investigation, 2022).
